Measured values as given in article PMC3477293 (ACS chemical biology, 2012).
Several values for one entry are separate records, joined by “and”; a condition that tells them apart may be missing. Equal entries are not always repeated. Where two headings read alike, the source gives them in different places.

Tests used:
AbaR [1] = molecular target: T1, AbaR (Acinetobacter nosocomialis, UniProt A0A0N8YGA2); assay: AbaR antagonism reporter gene; assay type: cell-based, Acinetobacter baumannii; conditions: for AbaR antagonistic activity (in words): primary screening data
A. baumannii (ΔabaI) [2] = assay: A. baumannii motility assay on soft agar; assay type: cell-based, Acinetobacter baumannii; conditions: for IC50: Acinetobacter baumannii, read-out: IC50 value, motility inhibition; for concentration preventing migration (comparable to ΔabaI mutant): (R)-OH-dDHL supplemented 0.3% soft agar
AbaR [3] = molecular target: T1, AbaR; assay: AbaR agonism reporter gene; assay type: cell-based, Acinetobacter baumannii; conditions: for Activation [%]: AHLs at 100 µM, normalized to (R)-OH-dDHL at 100 µM (set to 100%), error ≤ ±10%; for EC50: EC50, AHLs over 200 pM – 200 µM; for AbaR agonism (in words): 100 µM
AbaR [4] = molecular target: T1, AbaR; conditions: identical A. baumannii reporter strain; ref 43 (Garner et al.); cited from earlier work
A. baumannii (ΔabaI) [5] = assay: A. baumannii biofilm assay; assay type: cell-based, Acinetobacter baumannii; conditions: AHL at 100 µM, crystal violet, 24 h; for reduction of biofilm recovery: (R)-OH-dDHL added; for inhibition of biofilm formation (in words): biofilm recovery with (R)-OH-dDHL
wild-type A. baumannii = assay: A. baumannii biofilm assay; assay type: cell-based; conditions: Acinetobacter baumannii, read-out: inhibition of biofilm formation
LasR = conditions: cited from earlier work
[6] = AHLs over 10 nM – 100 µM against (R)-OH-dDHL at 0.70 µM

T1 sequence (A0A0N8YGA2 whole entry): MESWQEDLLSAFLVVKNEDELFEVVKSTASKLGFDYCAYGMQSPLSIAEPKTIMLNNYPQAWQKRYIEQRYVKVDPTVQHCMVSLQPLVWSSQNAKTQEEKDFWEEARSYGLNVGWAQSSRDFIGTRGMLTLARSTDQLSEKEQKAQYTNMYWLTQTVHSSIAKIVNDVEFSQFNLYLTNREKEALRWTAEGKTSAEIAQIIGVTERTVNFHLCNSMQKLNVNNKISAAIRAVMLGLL

Q: For `CCCCCCCC(=O)NC1CCOC1=O` (stereo not drawn) [Compound A3, octanoyl-HL], which “Inhibition [%]” value (AbaR [1]; AHLs at 100 µM against (R)-OH-dDHL at 0.70 µM, error ≤ ±10%) is on record?
A: 60%

Q: Which results are given for `O=C(Cc1ccccc1I)N[C@H]1CCOC1=O` [Compound C12, 2-iodo-PHL]?
A: IC50 (AbaR [1]): 6.13 µM; inhibition at 100 µM (AbaR [1]): 80%; IC50 (A. baumannii (ΔabaI) [2]): ~40 µM

Q: Which “Activation [%]” value (AbaR [3]) does the source give for `CCCCCCCCC[C@H](O)CC(=O)N[C@H]1CCOC1=O` [(S)-OH-dDHL, N-(3’-hydroxydodecanoyl)-L-HL] here?
A: 90%

Q: And the EC50 (AbaR [3])?
A: 29 µM and 28.9 µM

Q: What about the EC50 (AbaR [4]) of the same compound?
A: 0.82 µM

Q: For `CCCCCCCCCCCC(=O)NC1CCOC1=O` (stereo not drawn) [Compound A5, dodecanoyl HL], which “AbaR agonism (in words)” value (AbaR [3]) is on record?
A: no agonistic activity

Q: For `O=C(Cc1cccc(I)c1)N[C@H]1CCOC1=O` [Compound C11, 3-iodo PHL], which IC50 (AbaR [1]) is on record?
A: 2.32 µM

Q: What about the inhibition at 100 µM (AbaR [1]) of the same compound?
A: 91%

Q: And the “concentration preventing migration (comparable to ΔabaI mutant)” value (A. baumannii (ΔabaI) [2])?
A: less than 20 µM

Q: And the IC50 (A. baumannii (ΔabaI) [2])?
A: ~15 µM

Q: What does the source list for `O=C(Cc1cccc(Cl)c1)N[C@H]1CCOC1=O` [Compound C6, 3-chloro PHL]?
A: IC50 (AbaR [1]): 5.47 µM; inhibition at 100 µM (AbaR [1]): 83%; IC50 (A. baumannii (ΔabaI) [2]): ~40 µM

Q: For `O=C(Cc1ccccc1Cl)N[C@H]1CCOC1=O` [Compound C7], which inhibition at 100 µM (AbaR [1]) is on record?
A: 83%

Q: What about the IC50 (AbaR [1]; [6]) of the same compound?
A: 18.5 µM

Q: Which IC50 (AbaR [1]) does the source give for `O=C(Cc1ccccc1Br)N[C@H]1CCOC1=O` [Compound C9] here?
A: 17.5 µM

Q: What about the inhibition at 100 µM (AbaR [1]) of the same compound?
A: 97%

Q: And the “AbaR antagonistic activity (in words)” value (AbaR [1])?
A: moderately to strongly inhibitory

Q: Which results are given for `O=C(Cc1ccc(Cl)cc1)N[C@H]1CCOC1=O` [Compound C5]?
A: inhibition at 100 µM (AbaR [1]): 78%; IC50 (AbaR [1]; [6]): 16.7 µM

Q: With `O=C(Cc1cccc([N+](=O)[O-])c1)N[C@H]1CCOC1=O` [Compound C14, 3-nitro PHL] as the compound, how does the IC50 (AbaR [1]) read?
A: 8 µM

Q: And the inhibition at 100 µM (AbaR [1])?
A: 70%

Q: What about the IC50 (A. baumannii (ΔabaI) [2]) of the same compound?
A: ~70 µM

Q: Which “reduction of biofilm recovery” value (A. baumannii (ΔabaI) [5]) does the source give for `O=C(Cc1cccc(Br)c1)N[C@H]1CCOC1=O` [Compound C8, 3-bromo PHL] here?
A: ~ 40%

Q: What about the “inhibition of biofilm formation (in words)” value (A. baumannii (ΔabaI) [5]) of the same compound?
A: inhibit biofilm formation to significant levels

Q: And the inhibition at 100 µM (wild-type A. baumannii)?
A: ~40%

Q: And the IC50 (AbaR [1])?
A: 5.06 µM

Q: And the inhibition at 100 µM (AbaR [1])?
A: 90%

Q: What about the “AbaR antagonistic activity (in words)” value (AbaR [1]) of the same compound?
A: moderately to strongly inhibitory

Q: What about the “concentration preventing migration (comparable to ΔabaI mutant)” value (A. baumannii (ΔabaI) [2]) of the same compound?
A: less than 20 µM

Q: What about the IC50 (A. baumannii (ΔabaI) [2]) of the same compound?
A: ~7 µM

Q: With `CCCCCCCCCCCCCC(=O)NC1CCOC1=O` (stereo not drawn) [Compound A8, tetradecanoyl-HL] as the compound, how does the “AbaR agonism (in words)” value (AbaR [3]) read?
A: limited AbaR agonism

Q: And the “Activation [%]” value (AbaR [3])?
A: 9%

Q: Which “AbaR agonism (in words)” value (AbaR [3]) does the source give for `CCCCCCCCCC(=O)NC1CCOC1=O` (stereo not drawn) [Compound A7, decanoyl-HL] here?
A: limited AbaR agonism

Q: What about the “Activation [%]” value (AbaR [3]) of the same compound?
A: 3%

Q: Which results are given for `O=C(CCc1ccccc1)N[C@H]1CCOC1=O` [Compound B10, phenylpropanoyl HL]?
A: IC50 (AbaR [1]): 11 µM; inhibition at 100 µM (AbaR [1]): 72%

Q: Which IC50 (AbaR [1]; [6]) does the source give for `O=C(Cc1ccc(F)cc1)N[C@H]1CCOC1=O` [Compound C2] here?
A: > 25 µM

Q: For `CCCCCCC(=O)N[C@H]1CCOC1=O` [Compound 4, heptanoyl-HL], which IC50 (AbaR [1]) is on record?
A: 13.7 µM

Q: What about the inhibition at 100 µM (AbaR [1]) of the same compound?
A: 75%

Q: For `CCCCCCCCC[C@@H](O)CC(=O)N[C@H]1CCOC1=O` [(R)-OH-dDHL, N-(3’-hydroxydodecanoyl)-L-HL, reference compound], which “Activation [%]” value (AbaR [3]) is on record?
A: 100%

Q: And the EC50 (AbaR [3])?
A: 0.7 µM and 0.699 µM

Q: And the “fold more active than (S)-OH-dDHL (AbaR activation)” value (AbaR [3]; from EC50 values)?
A: ~ 40 fold

Q: What about the EC50 (AbaR [4]) of the same compound?
A: 0.67 µM

Q: With `CCCCCC(=O)CC(=O)N[C@H]1CCOC1=O` [Compound 1, 3-oxo-octanoyl-HL] as the compound, how does the LasR inhibition (LasR) read?
A: 50%

Q: What about the IC50 (LasR; read-out: IC50 (LasR)) of the same compound?
A: 0.11 µM

Q: And the “AbaR agonism (in words)” value (AbaR [3])?
A: limited AbaR agonism

Q: And the “inhibition of biofilm formation (in words)” value (A. baumannii (ΔabaI) [5])?
A: inhibit biofilm formation to significant levels

Q: What about the IC50 (AbaR [1]) of the same compound?
A: 2.91 µM

Q: What about the inhibition at 100 µM (AbaR [1]) of the same compound?
A: 73%

Q: And the “concentration preventing migration (comparable to ΔabaI mutant)” value (A. baumannii (ΔabaI) [2])?
A: less than 20 µM

Q: Which results are given for `O=C(Cc1ccc(I)cc1)N[C@H]1CCOC1=O` [Compound C10, 4-iodo PHL]?
A: reduction of biofilm recovery (A. baumannii (ΔabaI) [5]): ~ 40%; inhibition of biofilm formation (in words) (A. baumannii (ΔabaI) [5]): inhibit biofilm formation to significant levels; inhibition at 100 µM (wild-type A. baumannii): ~40%; IC50 (AbaR [1]): 7.06 µM; inhibition at 100 µM (AbaR [1]): 91%; IC50 (A. baumannii (ΔabaI) [2]): ~70 µM

Q: With `CCCCCCCCCC(=O)CC(=O)N[C@H]1CCOC1=O` [Compound 2] as the compound, how does the “Activation [%]” value (AbaR [3]) read?
A: 62%

Q: What about the EC50 (AbaR [3]) of the same compound?
A: 7.57 µM

Q: Which IC50 (AbaR [1]) does the source give for `O=C(Cc1ccc(Br)cc1)N[C@H]1CCOC1=O` [Compound 8, 4-bromo PHL] here?
A: 7.83 µM

Q: And the inhibition at 100 µM (AbaR [1])?
A: 71%
